Assay results taken from patent US6074864A, “Cloned DNA for synthesizing unique glucocerebrosidase” (The United States of America as represented by the …, priority 1994, dated 2000).

Biological target: T1, recombinant human glucocerebrosidase produced in baculovirus/SF9 system, enzyme in the culture media (Homo sapiens, UniProt P04062)
T1 construct: made in house; host or cells: Spodoptera frugiperda SF9 cells infected with recombinant baculovirus (AcNPV, pAc373/GC)
T1 sequence (P04062 40-536): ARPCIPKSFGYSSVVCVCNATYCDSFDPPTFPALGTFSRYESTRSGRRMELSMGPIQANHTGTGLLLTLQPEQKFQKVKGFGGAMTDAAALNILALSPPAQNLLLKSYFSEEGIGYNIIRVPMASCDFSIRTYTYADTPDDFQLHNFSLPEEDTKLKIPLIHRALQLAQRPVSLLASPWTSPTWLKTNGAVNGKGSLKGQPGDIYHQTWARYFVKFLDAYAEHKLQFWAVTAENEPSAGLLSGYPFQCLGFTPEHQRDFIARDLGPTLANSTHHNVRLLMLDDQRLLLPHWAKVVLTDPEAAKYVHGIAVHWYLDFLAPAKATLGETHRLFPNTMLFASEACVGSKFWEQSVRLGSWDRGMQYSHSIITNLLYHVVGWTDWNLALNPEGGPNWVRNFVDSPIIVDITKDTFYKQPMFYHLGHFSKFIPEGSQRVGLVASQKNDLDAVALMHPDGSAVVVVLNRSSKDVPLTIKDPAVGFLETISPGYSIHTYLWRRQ
Experiment: Km determination, β-glucosidase activity with 4MUGP
Format: biochemical
Details: pH 5.9, 100 mM potassium phosphate, 0.15% Triton X-100, 0.125% sodium taurocholate
Description: Glucocerebrosidase assays: For pH profile and inhibition studies, glucocerebrosidase activity was measured using 100 mM potassium phosphate buffer containing 0.15% Triton X-100, 2.5 μl of β-D-[1-^14 C] glucocerebroside (7.5 mg/ml in sodium taurocholate at 50 mg/ml), and the sample in the total volume of 200 ul. Preincubations with conduritol-B-epoxide were for 30 min at 37° C. […] Purification of recombinant glucocerebrosidase was also monitored using 4MUGP.

Cc1cc(=O)oc2cc(O[C@@H]3O[C@H](CO)[C@@H](O)[C@H](O)[C@H]3O)ccc12 [4MUGP, 4-methylumbellifery-β-D-glucopyranoside]
Km: 3.3 mM
